Experimental data taken from patent publication US20040142821A1, “Pesticide composition comprising malononitrile compounds” (priority 2001, published 2004).

The compounds below were run on Musca domestics (assay: Pesticidal test against Musca domestics, treated filter paper with sucrose bait (Test Example 5)). Settings: 500 ppm test liquid (Formulation Example 5), 0.7 ml on filter paper, ten female adults, after 24 hours.
Assay type: in vivo
Protocol: Ten female adults of Musca domestics (house fly) were set free in the polyethylene cup, which was then kept covered. After 24 hours, their survival was examined to determine the mortality.
Compound C#CCC(C#N)(C#N)C(C=C)c1ccc(OC(F)(F)F)cc1 (stereo not drawn) [Compound 34, 2-(2-propynyl)-2-(1-(4-(trifluoromethoxy)phenyl)-2-propenyl)malononitrile] has a mortality at 500 ppm of 100%.
For C=CCCC(C#N)(C#N)Cc1ccc(OC(F)(F)Br)cc1 [Compound 35, 2-(3-butenyl)-2-(4-(bromodifluoromethoxy)benzyl)malononitrile], the mortality at 500 ppm was 100%.
CC(C)CCC(C#N)(C#N)Cc1ccc(OC(F)(F)F)cc1 [Compound 45, 2-(3-methylbutyl)-2-(4-(trifluoromethoxy)benzyl)malononitrile] gave a mortality at 500 ppm of 100%.
With C=CCCC(C#N)(C#N)Cc1c(Cl)cc(C(F)(F)F)cc1Cl [Compound 65, 2-(3-butenyl)-2-(2,6-dichloro-4-(trifluoromethyl)benzyl)malononitrile] the mortality at 500 ppm was 100%.
C=CCCC(C#N)(C#N)Cc1ccc(C(F)(F)F)cc1[N+](=O)[O-] [Compound 67, 2-(3-butenyl)-2-(2-nitro-4-(trifluoromethyl)benzyl)malononitrile] was tested, and the mortality at 500 ppm was 100%.
CCCC(C#N)(C#N)Cc1ccc(C(F)(F)F)cc1 [Compound 71, 2-propyl-2-(4-(trifluoromethyl)benzyl)malononitrile] showed a mortality at 500 ppm of 100%.
For CCC(C#N)(C#N)Cc1ccc(C(F)(F)F)cc1 [Compound 75, 2-ethyl-2-(4-(trifluoromethyl)benzyl)malononitrile], the mortality at 500 ppm was 100%.
C=CCC(C#N)(C#N)C(OCC)c1ccc(OC(F)(F)F)cc1 (stereo not drawn) [Compound 82, 2-allyl-2-(4-(trifluoromethoxy)-α-ethoxybenzyl)malononitrile] gave a mortality at 500 ppm of 100%.
C=CCCC(C#N)(C#N)Cc1cccc(OC(F)(F)F)c1 [Compound 90, 2-(3-butenyl)-2-(3-(trifluoromethoxy)benzyl)malononitrile] gave a mortality at 500 ppm of 100%.
With C=CCC(C#N)(C#N)C(C#N)c1ccc(C)cc1 (stereo not drawn) [Compound 92, 2-allyl-2-(4-methyl-α-cyanobenzyl)malononitrile] the mortality at 500 ppm was 100%.
With C=CCC(C#N)(C#N)Cc1ccc(CC)cc1 [Compound 101, 2-allyl-2-(4-ethylbenzyl)malononitrile] the mortality at 500 ppm was 100%.
CC(C)CCC(C#N)(C#N)Cc1ccc(C(F)(F)F)cc1 [Compound 105, 2-(3-methylbutyl)-2-(4-(trifluoromethyl)benzyl)malononitrile] gave a mortality at 500 ppm of 100%.
For CC=CCC(C#N)(C#N)Cc1ccc(C(F)(F)F)cc1 [Compound 107, 2-(2-butenyl)-2-(4-(trifluoromethyl)benzyl)malononitrile], the mortality at 500 ppm was 100%.
In the case of C=C(C)CC(C#N)(C#N)Cc1ccc(C(F)(F)F)cc1 [Compound 108, 2-(2-methyl-2-propenyl)-2-(4-(trifluoromethyl)benzyl)malononitrile], the mortality at 500 ppm is reported as 100%.
With CCC(C)C(C#N)(C#N)Cc1ccc(C(F)(F)F)cc1 (stereo not drawn) [Compound 111, 2-(1-methylpropyl)-2-(4-(trifluoromethyl)benzyl)malononitrile] the mortality at 500 ppm was 100%.
C=CCC(C#N)(C#N)Cc1cccc(F)c1F [Compound 114, 2-allyl-2-(2,3-difluorobenzyl)malononitrile] showed a mortality at 500 ppm of 100%.
Work on C=CCC(C#N)(C#N)Cc1ccc(OC(C)CC)cc1 (stereo not drawn) [Compound 115, 2-allyl-2-(4-(2-butyloxy)benzyl)malononitrile] yielded a mortality at 500 ppm of 100%.

These compounds were tested on German cockroach (assay: Pesticidal test against German cockroach, treated filter paper with sucrose bait (Test Example 6)). Settings: Blattella germanica, 144 h; 500 ppm test liquid (Formulation Example 5), 0.7 ml on filter paper; two male adults; after 6 days.
Assay type: in vivo
Description: Two male adults of German cockroach (Blattalla germanica) were set free in the polyethylene cup, which was then kept covered. After 6 days, their survival was examined to determine the mortality.
C=CCC(C#N)(C#N)Cc1cccc(F)c1F [Compound 114, 2-allyl-2-(2,3-difluorobenzyl)malononitrile] showed a mortality at 500 ppm of 100%.
C=CCC(C#N)(C#N)Cc1ccc(Oc2cccc(C)c2)cc1 [Compound 119, 2-allyl-2-(4-(m-tolyloxy)benzyl)malononitrile] was tested, and the mortality at 500 ppm was 100%.
Compound C=CCC(C#N)(C#N)Cc1ccc(Oc2ccc(Cl)cc2)cc1 [Compound 121, 2-allyl-2-(4-(p-chlorophenoxy)benzyl)malononitrile] has a mortality at 500 ppm of 100%.

These compounds were tested on Cullex pipiens pallens (assay: whole plant or invertebrate). Settings: 24 h.
Protocol: In 100 ml of ion-exchanged water, the test liquid had been prepared as described above, was added dropwise in an amount of 0.7 ml (the concentration of active ingredient was 3.5 ppm). Twenty final-instar larvae of Cullex pipiens pallens (common mosquito) were set free in the solution. After 1 days, their survival was examined to determine the mortality.
C=CCCC(C#N)(C#N)Cc1ccc(C#N)cc1 [Compound 6, 2-(3-butenyl)-2-(4-cyanobenzyl)malononitrile] was tested, and the mortality at 3.5 µg/mL was 100%.
With C=CCCCC(C#N)(C#N)Cc1ccc(C#N)cc1 [Compound 7, 2-(4-cyanobenzyl)-2-(4-pentenyl)malononitrile] the mortality at 3.5 µg/mL was 100%.
For C=CCC(C#N)(C#N)Cc1ccc(Br)cc1 [Compound 13, 2-allyl-2-(4-bromobenzyl)malononitrile], the mortality at 3.5 µg/mL was 100%.
CC(C)=CCC(C#N)(C#N)Cc1ccc(Cl)cc1 [Compound 25, 2-(4-chlorobenzyl)-2-(3-methyl-2-butenyl)malononitrile] gave a mortality at 3.5 µg/mL of 100%.
For CC(C)=CCC(C#N)(C#N)Cc1ccc(OC(F)(F)F)cc1 [Compound 27, 2-(3-methyl-2-butenyl)-2-(4-(trifluoromethoxy)benzyl)malononitrile], the mortality at 3.5 µg/mL was 100%.
C=CCC(C#N)(C#N)Cc1cccc(OC)c1 [Compound 28, 2-allyl-2-(3-methoxybenzyl)malononitrile] showed a mortality at 3.5 µg/mL of 100%.
C=CCC(C#N)(C#N)Cc1ccc(OC)cc1 [Compound 29, 2-allyl-2-(4-methoxybenzyl)malononitrile] showed a mortality at 3.5 µg/mL of 100%.
In the case of C#CCC(C#N)(C#N)C(C=C)c1ccc(OC(F)(F)F)cc1 (stereo not drawn) [Compound 34, 2-(2-propynyl)-2-(1-(4-(trifluoromethoxy)phenyl)-2-propenyl)malononitrile], the mortality at 3.5 µg/mL is reported as 100%.
C=CCCC(C#N)(C#N)Cc1ccc(OC(F)(F)Br)cc1 [Compound 35, 2-(3-butenyl)-2-(4-(bromodifluoromethoxy)benzyl)malononitrile] gave a mortality at 3.5 µg/mL of 100%.
Work on C=CCCC(C#N)(C#N)Cc1ccc(OCC=C)cc1 [Compound 38, 2-(3-butenyl)-2-(4-(2-propenyloxy)benzyl)malononitrile] yielded a mortality at 3.5 µg/mL of 100%.
For C=CCC(C#N)(C#N)Cc1ccc(OCC)cc1 [Compound 44, 2-allyl-2-(4-ethoxybenzyl)malononitrile], the mortality at 3.5 µg/mL was 100%.
Work on CC(C)CCC(C#N)(C#N)Cc1ccc(OC(F)(F)F)cc1 [Compound 45, 2-(3-methylbutyl)-2-(4-(trifluoromethoxy)benzyl)malononitrile] yielded a mortality at 3.5 µg/mL of 100%.
For C=CCC(C#N)(C#N)C(C)(C)c1cccc(Cl)c1 [Compound 48, 2-allyl-2-(1-(3-chlorophenyl)-1-methylethyl)malononitrile], the mortality at 3.5 µg/mL was 100%.
Compound C=CCC(C#N)(C#N)Cc1c(Cl)cccc1Cl [Compound 54, 2-allyl-2-(2,6-dichlorobenzyl)malononitrile] has a mortality at 3.5 µg/mL of 100%.
For C=CCC(C#N)(C#N)Cc1ccc(S(C)(=O)=O)cc1 [Compound 61, 2-allyl-2-(4-(methylsulfonyl)benzyl)malononitrile], the mortality at 3.5 µg/mL was 100%.
C=CCC(C#N)(C#N)Cc1ccc(C(F)(F)F)cc1[N+](=O)[O-] [Compound 63, 2-allyl-2-(2-nitro-4-(trifluoromethyl)benzyl)malononitrile] showed a mortality at 3.5 µg/mL of 100%.
With C=CCCC(C#N)(C#N)Cc1c(Cl)cc(C(F)(F)F)cc1Cl [Compound 65, 2-(3-butenyl)-2-(2,6-dichloro-4-(trifluoromethyl)benzyl)malononitrile] the mortality at 3.5 µg/mL was 100%.
For C=CCCC(C#N)(C#N)Cc1ccc(C(F)(F)F)cc1[N+](=O)[O-] [Compound 67, 2-(3-butenyl)-2-(2-nitro-4-(trifluoromethyl)benzyl)malononitrile], the mortality at 3.5 µg/mL was 100%.
In the case of C=CCC(C#N)(C#N)Cc1ccc(SC)cc1 [Compound 70, 2-allyl-2-(4-(methylthio)benzyl)malononitrile], the mortality at 3.5 µg/mL is reported as 100%.
With CCCC(C#N)(C#N)Cc1ccc(C(F)(F)F)cc1 [Compound 71, 2-propyl-2-(4-(trifluoromethyl)benzyl)malononitrile] the mortality at 3.5 µg/mL was 100%.
CCC(C#N)(C#N)Cc1ccc(C(F)(F)F)cc1 [Compound 75, 2-ethyl-2-(4-(trifluoromethyl)benzyl)malononitrile] showed a mortality at 3.5 µg/mL of 100%.
Compound C=CCCC(C#N)(C#N)Cc1ccc(OC(C)=O)cc1 [Compound 78, 2-(3-butenyl)-2-(4-(acetyloxy)benzyl)malononitrile] has a mortality at 3.5 µg/mL of 100%.
With C=CCCC(C#N)(C#N)Cc1ccc(OC(F)(F)C(F)F)cc1 [Compound 80, 2-(3-butenyl)-2-(4-(1,1,2,2-tetrafluoroethoxy)benzyl)malononitrile] the mortality at 3.5 µg/mL was 100%.
Work on C=CCCC(C#N)(C#N)Cc1ccc(OCC(F)(F)F)cc1 [Compound 81, 2-(3-butenyl)-2-(4-(2,2,2-trifluoroethoxy)benzyl)malononitrile] yielded a mortality at 3.5 µg/mL of 100%.
For C=CCC(C#N)(C#N)C(OCC)c1ccc(OC(F)(F)F)cc1 (stereo not drawn) [Compound 82, 2-allyl-2-(4-(trifluoromethoxy)-α-ethoxybenzyl)malononitrile], the mortality at 3.5 µg/mL was 100%.
C=CCC(C#N)(C#N)C(OC)c1ccc(C#N)cc1 (stereo not drawn) [Compound 83, 2-allyl-2-(4-cyano-α-methoxybenzyl)malononitrile] showed a mortality at 3.5 µg/mL of 100%.
C=CCC(C#N)(C#N)C(C#N)c1ccc(OC)cc1 (stereo not drawn) [Compound 91, 2-allyl-2-(4-methoxy-α-cyanobenzyl)malononitrile] gave a mortality at 3.5 µg/mL of 100%.
In the case of C=CCC(C#N)(C#N)C(C#N)c1ccc(C)cc1 (stereo not drawn) [Compound 92, 2-allyl-2-(4-methyl-α-cyanobenzyl)malononitrile], the mortality at 3.5 µg/mL is reported as 100%.
For C=CCC(C#N)(C#N)Cc1ccc(C(C)=O)cc1 [Compound 97, 2-(4-acetylbenzyl)-2-allylmalononitrile], the mortality at 3.5 µg/mL was 100%.
C=CCCC(C#N)(C#N)Cc1ccc(OCC)cc1 [Compound 98, 2-(3-butenyl)-2-(4-ethoxybenzyl)malononitrile] gave a mortality at 3.5 µg/mL of 100%.
For C=CCCC(C#N)(C#N)Cc1ccc(OCCC)cc1 [Compound 99, 2-(3-butenyl)-2-(4-propoxybenzyl)malononitrile], the mortality at 3.5 µg/mL was 100%.
Compound C=CCCC(C#N)(C#N)Cc1ccc(OC(C)C)cc1 [Compound 100, 2-(3-butenyl)-2-(4-isopropoxybenzyl)malononitrile] has a mortality at 3.5 µg/mL of 100%.
C=CCC(C#N)(C#N)Cc1ccc(CC)cc1 [Compound 101, 2-allyl-2-(4-ethylbenzyl)malononitrile] showed a mortality at 3.5 µg/mL of 100%.
For C=CCC(C#N)(C#N)C(c1ccc(OC(F)(F)F)cc1)C(C)(C)C (stereo not drawn) [Compound 103, 2-allyl-2-(1-(4-(trifluoromethoxy)phenyl)-2,2-dimethylpropyl)malononitrile], the mortality at 3.5 µg/mL was 100%.
In the case of CCCCCC(C#N)(C#N)Cc1ccc(C(F)(F)F)cc1 [Compound 104, 2-pentyl-2-(4-(trifluoromethyl)benzyl)malononitrile], the mortality at 3.5 µg/mL is reported as 100%.
For CC(C)CCC(C#N)(C#N)Cc1ccc(C(F)(F)F)cc1 [Compound 105, 2-(3-methylbutyl)-2-(4-(trifluoromethyl)benzyl)malononitrile], the mortality at 3.5 µg/mL was 100%.
CC(C)=CCC(C#N)(C#N)Cc1ccc(C(F)(F)F)cc1 [Compound 106, 2-(3-methyl-2-butenyl)-2-(4-(trifluoromethyl)benzyl)malononitrile] showed a mortality at 3.5 µg/mL of 100%.
In the case of CC=CCC(C#N)(C#N)Cc1ccc(C(F)(F)F)cc1 [Compound 107, 2-(2-butenyl)-2-(4-(trifluoromethyl)benzyl)malononitrile], the mortality at 3.5 µg/mL is reported as 100%.
Compound C=C(C)CC(C#N)(C#N)Cc1ccc(C(F)(F)F)cc1 [Compound 108, 2-(2-methyl-2-propenyl)-2-(4-(trifluoromethyl)benzyl)malononitrile] has a mortality at 3.5 µg/mL of 100%.
For CCC(C)C(C#N)(C#N)Cc1ccc(C(F)(F)F)cc1 (stereo not drawn) [Compound 111, 2-(1-methylpropyl)-2-(4-(trifluoromethyl)benzyl)malononitrile], the mortality at 3.5 µg/mL was 100%.
CCCC(C)C(C#N)(C#N)Cc1ccc(C(F)(F)F)cc1 (stereo not drawn) [Compound 112, 2-(1-methylbutyl)-2-(4-(trifluoromethyl)benzyl)malononitrile] was tested, and the mortality at 3.5 µg/mL was 100%.
CCCCC(C)C(C#N)(C#N)Cc1ccc(C(F)(F)F)cc1 (stereo not drawn) [Compound 113, 2-(1-methylpentyl)-2-(4-(trifluoromethyl)benzyl)malononitrile] was tested, and the mortality at 3.5 µg/mL was 100%.
In the case of C=CCC(C#N)(C#N)Cc1ccc(OC(C)CC)cc1 (stereo not drawn) [Compound 115, 2-allyl-2-(4-(2-butyloxy)benzyl)malononitrile], the mortality at 3.5 µg/mL is reported as 100%.
For C=CCC(C#N)(C#N)Cc1ccc(F)c(Oc2ccccc2)c1 [Compound 116, 2-allyl-2-(4-fluoro-3-phenoxybenzyl)malononitrile], the mortality at 3.5 µg/mL was 100%.
For C=CCC(C#N)(C#N)Cc1cccc(Oc2ccccc2)c1 [Compound 118, 2-allyl-2-(3-phenoxybenzyl)malononitrile], the mortality at 3.5 µg/mL was 100%.
C=CCC(C#N)(C#N)Cc1ccc(Oc2ccc(Cl)cc2)cc1 [Compound 121, 2-allyl-2-(4-(p-chlorophenoxy)benzyl)malononitrile] was tested, and the mortality at 3.5 µg/mL was 100%.
